By IC50 is commonly meant the concentration at which inhibition is half-maximal.

One experiment deals with CoC1 cells. Put plainly: CellTiter-Glo Luminescent Cell Viability Assay on ovary cancer CoC1 cells. To be noted: 72 hours, read-out: Inhibition of the viability of ovary cancer cells, IC50. The format is cell-based. As for the experimental part:
B: In Vitro CellTiter-Glo® Luminescent Cell Viability Assay on Ovary Cancer CoC1 Cells
(§1) The ovary cancer CoC1 cells were obtained from Cancer hospital, Chinese Academy of Medical Sciences and maintained in RPMI-1640 and 10% fetal calf serum at 37° C., under 5% CO2 atmosphere. The cells were seeded on 96-well plate at a density of 6×10^3 cells per well. CoC1 cells were treated with a test compound dissolved in DMSO at the concentrations of zero, 0.3 μM, 0.5 μM, 1 μM, 2 μM, 3 μM, 5 μM, 10 μM, 30 μM, 50 μM and 100 μM for 72 hours. Treated cells were examined by CellTiter-Glo® Luminescent Cell Viability Assay Kit (Promega), and luminescence values were recorded with Envision.

A further experiment relates to MDA-MB-231 cells. Put plainly: CellTiter-Glo Luminescent Cell Viability Assay on ER-negative breast cancer MDA-MB-231 cells. The format is cell-based. To be noted: average ± standard deviation when tested more than 3 times, read-out: Inhibition of the viability of breast cancer cells, IC50. The method, boiled down: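 Cells seeded at 6×10^3 per well in DMEM with 10% FCS and exposed 72 h to compound at 0 to 100 μM (twelve concentrations, DMSO vehicle). Viability measured by CellTiter-Glo luminescence.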
In general terms: ATP-based viability assays read luminescence as a measure of living cells.

The subject of the next experiment is Molt-4 cells. Put plainly: CellTiter-Glo Luminescent Cell Viability Assay on leukemia Molt-4 cells. The settings on record: 72 hours, read-out: Inhibition of the viability of leukemia cells, IC50. The format is cell-based. As for the experimental part:
C: In Vitro CellTiter-Glo® Luminescent Cell Viability Assay on Leukemia Molt-4 Cells
(§2) The leukemia Molt-4 cells were obtained from ATCC and maintained in RPMI-1640 and 10% fetal calf serum at 37° C., under 5% CO2 atmosphere. The cells were seeded on 96-well plate at a density of 6×10^3 cells per well. RPMI-1640 cells were treated with a test compound dissolved in DMSO at the concentrations of zero, 0.3 μM, 0.5 μM, 1 μM, 2 μM, 3 μM, 5 μM, 10 μM, 20 μM, 30 μM, 50 μM and 100 μM for 72 hours. Treated cells were examined by CellTiter-Glo® Luminescent Cell Viability Assay Kit (Promega), and luminescence values were recorded with Envision.

In a further experiment the test system is K562 cells. Put plainly: CellTiter-Glo Luminescent Cell Viability Assay on leukemia K562 cells. The settings on record: 72 hours, read-out: Inhibition of the viability of leukemia cells, IC50. The format is cell-based, human. The protocol:
A: In Vitro CellTiter-Glo® Luminescent Cell Viability Assay on Leukemia K562 Cells
The leukemia K562 cells were obtained from ATCC and maintained in IMDM and 10% fetal calf serum at 37° C., under 5% CO2 atmosphere. The cells were seeded on 96-well plate at a density of 6×10^3 cells per well. K562 cells were treated with a test compound dissolved in DMSO at the concentrations of zero, 0.3 μM, 0.5 μM, 1 μM, 2 μM, 3 μM, 5 μM, 10 μM, 20 μM, 30 μM, 50 μM and 100 μM for 72 hours. Treated cells were examined by CellTiter-Glo® Luminescent Cell Viability Assay Kit (Promega), and luminescence values were recorded with Envision.

The subject of a further experiment is MCF7 cells. Put plainly: CellTiter-Glo Luminescent Cell Viability Assay on ER-positive breast cancer MCF-7 cells. The format is cell-based, human. To be noted: average ± standard deviation when tested more than 3 times, read-out: Inhibition of the viability of breast cancer cells, IC50. The method, boiled down:
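MCF7 cells (DMEM, 10% FCS, 37 °C) treated 72 h with compound at 0–100 μM (0.3, 0.5, 1, 2, 3, 5, 10, 20, 30, 50, 100 μM). Viability measured by CellTiter-Glo luminescence.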

Another experiment has as its system Hep3B2.1-7 cells. Kind of experiment: MTT assay, in vitro growth of liver cancer Hep3B2.1-7 cells. The format is cell-based. To be noted: 72 hours. The protocol:
The liver cancer Hep3B2.1-7 cells were obtained from ATCC. Cells were incubated in 1640 culture medium with 5% fetal calf serum and 100 U/ml double-antibody in a cell incubator at 37° C., 5% CO2 atmosphere and passaged via conventional methods. The sample was dissolved in DMSO, formulated into 50 mg/ml stocking solution, and stored at 4° C. The test solutions at 50, 25, 12.5 and 6.25 μg/ml were formulated with culture medium immediately before use.
The adherent cells were digested with cell digestive solution, and then the exfoliated cells were collected and counted. The cell suspension was formulated with 1640 culture medium containing 5% fetal calf serum (5.0×10^4/ml). The cell suspension was seeded on 96-well plate with 100 μl/well, and maintained in a cell incubator at 37° C., 5% CO2 atmosphere for 24 hours. After that, the compounds at various concentrations were added, where solvent was taken as negative control and Taxol as positive control. 10 μl MTT (5 mg/ml) was added after 72 hours. The supernatant was removed after cultivation for 3 hours more, 150 μl DMSO was added and the formazan was dissolved on shaking. OD values were measured at 570 nm after homogeneous mixing, and inhibition rate and IC50 values were calculated based on the mean of OD values from 3 wells.

The subject of a further experiment is HL-60 cells. Kind of experiment: CellTiter-Glo Luminescent Cell Viability Assay on leukemia HL-60 cells. It counts as cell-based, human. To be noted: 72 hours, read-out: Inhibition of the viability of leukemia cells, IC50. As for the experimental part: B: In Vitro CellTiter-Glo® Luminescent Cell Viability Assay on Leukemia HL-60 Cells
The leukemia HL-60 cells were obtained from ATCC and maintained in IMDM and 10% fetal calf serum at 37° C., under 5% CO2 atmosphere. The cells were seeded on 96-well plate at a density of 6×10^3 cells per well. HL-60 cells were treated with a test compound dissolved in DMSO at the concentrations of zero, 0.3 μM, 0.5 μM, 1 μM, 2 μM, 3 μM, 5 μM, 10 μM, 20 μM, 30 μM, 50 μM and 100 μM for 72 hours. Treated cells were examined by CellTiter-Glo® Luminescent Cell Viability Assay Kit (Promega), and luminescence values were recorded with Envision.

For another experiment, the system named is HEC-1A cells. Put plainly: CellTiter-Glo Luminescent assay on endometrial cancer HEC-1A cells. To be noted: 72 hours, read-out: Inhibition of the viability of endometrial cancer cells, IC50. The format is cell-based, human. The protocol: CellTiter-Glo® Luminescent Assay to Measure the Inhibitory Activity of the Compounds on In Vitro Growth of Endometrial Cancer HEC-1A Cells
as §2, with “HEC-1A cells are endometrial cancer cell lines only expressing ER-36. Human endometrial cancer HEC-1A cells” for “The leukemia Molt-4 cells”, “in DMEM” for “in RPMI-1640”, “well. HEC-1A” for “well. RPMI-1640”, “5” for “5 μM, 10”

The test system of a further experiment is SK-OV3 cells. Put plainly: CellTiter-Glo Luminescent Cell Viability Assay on ovary cancer SK-OV3 cells. The format is cell-based. To be noted: read-out: Inhibition of the viability of ovary cancer cells, IC50. The protocol: C: In Vitro CellTiter-Glo® Luminescent Cell Viability Assay on Ovary Cancer SK-OV3 Cells
as §1, with “ovary cancer SK-OV3 cells were” for “ovary cancer CoC1 cells were”, “per well. SK-OV3 cells were” for “per well. CoC1 cells were”, “μM, 10 μM, 20 μM, 30” for “μM, 10 μM, 30”

Another experiment concerns HO8910 cells. Kind of experiment: CellTiter-Glo Luminescent Cell Viability Assay on ovary cancer HO8910 cells. It counts as cell-based. To be noted: HO-8910 cells; 72 hours; read-out: Inhibition of the viability of ovary cancer cells, IC50. The protocol:
A: In Vitro CellTiter-Glo® Luminescent Cell Viability Assay on Ovary Cancer HO8910 Cells
as §2, with “Ovary cancer HO8910 cells” for “The leukemia Molt-4 cells”, “from Type Culture Collection of the Chinese Academy of Sciences, Shanghai,” for “from ATCC”, “well. HO8910” for “well. RPMI-1640”

Like-named read-outs stand apart in the source and are kept apart here.

For the molecule “2-(-fluoro-4-chlorophenyl)-5,7-dihydroxy-3-methoxy-6,8-di(3-methyl-2-buten-1-yl)-4H-benzopyran-4-one [Compound 5]”, the concentration for half-maximal inhibition (IC50) with CoC1 cells is 6.91 µM; in the experiment on MDA-MB-231 cells (72 hours), 7.03 ± 1.06 µM; in the experiment on Molt-4 cells, 9.13 µM; in the experiment with K562 cells, 12 µM; in the experiment with MCF7 cells (72 hours), 6.73 ± 1.58 µM; in the experiment with HL-60 cells, 8.96 µM. For the same molecule, in the experiment on HEC-1A cells, the half-inhibitory concentration (IC50) came to 7.14 µM. For the same molecule, the “Inhibition on liver cancer cells, IC50” value with Hep3B2.1-7 cells worked out at 1.45 µg/mL.
Take `COc1c(-c2ccc(C(F)(F)F)c(F)c2)oc2c(CC=C(C)C)c(O)c(CC=C(C)C)c(O)c2c1=O` [Compound 6, 2-(3-fluoro-4-trifluoromethylphenyl)-5,7-dihydroxy-3-methoxy-6,8-di(3-methyl-2-butylene-1-yl)-4H-benzopyran-4-one]: the half-inhibitory concentration (IC50) in the experiment on MDA-MB-231 cells (72 hours) was 7.06 ± 2.13 µM; in the experiment with Molt-4 cells, more than 100 µM; in the experiment on K562 cells it was more than 100 µM; in the experiment on MCF7 cells (72 hours) it was 5.14 ± 0.47 µM; in the experiment with HL-60 cells it was more than 100 µM; in the experiment with HEC-1A cells it was 4.02 µM.
For `COc1c(-c2ccc(F)c(Cl)c2)oc2c(CC=C(C)C)c(O)c(CC=C(C)C)c(O)c2c1=O` [Compound 8, 2-(3-chloro-4-fluorophenyl)-5,7-dihydroxy-3-methoxy-6,8-di(3-methyl-2-butylene-1-yl)-4H-benzopyran-4-one], the IC50 with CoC1 cells worked out at 11.8 µM; in the experiment with SK-OV3 cells (72 hours), 24.3 µM; in the experiment on HO8910 cells, 22.3 µM; with MDA-MB-231 cells (72 hours) it was 9.96 ± 1.97 µM; in the experiment with Molt-4 cells, 15.3 µM; with K562 cells, 12.8 µM. In addition, the IC50 came out at 8.58 ± 0.24 µM in the experiment on MCF7 cells (72 hours) and 17.9 µM with HL-60 cells. Also, the “Inhibition on liver cancer cells, IC50” value with Hep3B2.1-7 cells came to 1.46 µg/mL.
Turning to `COc1c(-c2ccc(C(F)(F)F)cc2)oc2c(CC=C(C)C)c(O)c(CC=C(C)C)c(O)c2c1=O` [Compound 15, 2-(4-trifluoromethylphenyl)-5,7-dihydroxy-3-methoxy-6,8-di(3-methyl-2-butylene-1-yl)-4H-benzopyran-4-one], the IC50 with MDA-MB-231 cells (72 hours) is 9.91 ± 0.11 µM; in the experiment on Molt-4 cells, 13.2 µM; with K562 cells it was 12.4 µM; in the experiment on MCF7 cells (72 hours), 8.28 ± 2.2 µM; with HL-60 cells, 15.7 µM; in the experiment with HEC-1A cells, 8.35 µM. Further, the “Inhibition on liver cancer cells, IC50” value with Hep3B2.1-7 cells was found to be 0.00138 µg/mL.
With `COc1c(-c2ccc3nccnc3c2)oc2c(CC=C(C)C)c(O)c(CC=C(C)C)c(O)c2c1=O` [Compound 18, 2-(quinoxalin-6-yl)-5,7-dihydroxy-3-methoxy-6,8-di(3-methyl-2-butylene-1-yl)-4H-benzopyran-4-one], the half-inhibitory concentration (IC50) in the experiment with MDA-MB-231 cells (72 hours) was 11.9 ± 0.4 µM; in the experiment on Molt-4 cells it was 14.2 µM; in the experiment with K562 cells it was more than 100 µM; in the experiment on MCF7 cells (72 hours) it was 12.03 ± 0.09 µM; in the experiment on HL-60 cells, more than 100 µM; in the experiment with HEC-1A cells, 13.8 µM.
Regarding `COc1c(-c2cncs2)oc2c(CC=C(C)C)c(O)c(CC=C(C)C)c(O)c2c1=O` [Compound 25, 2-(thiazol-5-yl)-5,7-dihydroxy-3-methoxy-6,8-di(3-methyl-2-buten-1-yl)-4H-benzopyran-4-one], the half-maximal inhibitory concentration (IC50) in the experiment on CoC1 cells is 14.3 µM; with SK-OV3 cells (Homo sapiens, SK-OV-3, 72 hours), 12.6 µM; with HO8910 cells, more than 100 µM; in the experiment with MDA-MB-231 cells (Homo sapiens, MDA-MB-231, 72 h) it was 17.3 ± 6.5 µM; in the experiment on Molt-4 cells (Homo sapiens), more than 100 µM; in the experiment on K562 cells (Homo sapiens) it was more than 100 µM. Further, the IC50 is 9.19 ± 2.47 µM in the experiment on MCF7 cells (Homo sapiens, MCF7, 72 h) and more than 100 µM in the experiment on HL-60 cells (Homo sapiens).

Values taken from US9090583B2, “Benzopyrone estrogen receptor regulator” (BEIJING SHENOGEN PHARMA GROUP LTD., priority 2010, dated 2015).
